Activity calls are given as the source filed them. The rule behind the calls is not given here.
Tests used:
[1] = system: Kasumi 1; test: Antitumor activity against human Kasumi-1 cells xenografted in CB17 SCID mouse assessed as tumor volume at 40 mg/kg, po QD for 25 days (reference value: 2189 +/- 604 mm3); assay type: functional; conditions: time 25 day
[2] = Half life in CD-1 mouse at 2 mg/kg, iv; assay type: ADME, organism-based; conditions: in vivo
[3] = Stability in mouse liver microsomes assessed as half life; assay type: ADME, Microsome
[4] = Stability in human liver microsomes assessed as half life; assay type: ADME, Microsome
[5] = Toxicity in CD1 mouse assessed as weight loss at 50 to 100 mg/kg, po administered once daily for 5 days and observed for 5 days after last dose; assay type: organism-based; conditions: in vivo, 120 h, dose 50-100 mg/kg, time 5 day
[6] = Toxicity in CD1 mouse assessed as mortality at 50 to 100 mg/kg, po administered once daily for 5 days and observed for 5 days after last dose; assay type: organism-based; conditions: in vivo, 120 h, dose 50-100 mg/kg, time 5 day
[7] = Apparent permeability across apical to basolateral side in human Caco2 cells; assay type: ADME, cell-based; conditions: caco-2
[8] = Efflux ratio of apparent permeability from basolateral side to apical side over apical side to basolateral side in human Caco2 cells; assay type: ADME, cell-based; conditions: caco-2
[9] = biological target: CYP3A4 (Homo sapiens, UniProt P08684); test: Inhibition of human CYP3A4 at 10 uM using testosterone as substrate relative to control; assay type: ADME; conditions: probe testosterone
CYP3A4, sequence (P08684 whole entry): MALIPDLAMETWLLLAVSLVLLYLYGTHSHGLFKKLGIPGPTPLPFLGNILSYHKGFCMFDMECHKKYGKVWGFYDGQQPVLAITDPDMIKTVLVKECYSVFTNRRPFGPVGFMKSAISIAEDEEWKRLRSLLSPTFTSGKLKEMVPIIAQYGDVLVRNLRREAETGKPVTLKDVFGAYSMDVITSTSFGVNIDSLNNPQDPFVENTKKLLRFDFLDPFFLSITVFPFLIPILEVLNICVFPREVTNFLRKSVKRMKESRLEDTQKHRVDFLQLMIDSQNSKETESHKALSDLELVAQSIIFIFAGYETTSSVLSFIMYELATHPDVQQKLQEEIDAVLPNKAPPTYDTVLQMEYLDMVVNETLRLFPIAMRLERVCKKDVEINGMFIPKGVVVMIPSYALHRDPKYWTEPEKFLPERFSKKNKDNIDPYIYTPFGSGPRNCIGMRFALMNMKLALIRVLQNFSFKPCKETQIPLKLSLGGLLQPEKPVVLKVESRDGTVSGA

[10] = biological target: T1, CYP1A2 (Homo sapiens, UniProt P05177); test: Inhibition of human CYP1A2 at 10 uM relative to control; assay type: ADME
T1 sequence (P05177 whole entry): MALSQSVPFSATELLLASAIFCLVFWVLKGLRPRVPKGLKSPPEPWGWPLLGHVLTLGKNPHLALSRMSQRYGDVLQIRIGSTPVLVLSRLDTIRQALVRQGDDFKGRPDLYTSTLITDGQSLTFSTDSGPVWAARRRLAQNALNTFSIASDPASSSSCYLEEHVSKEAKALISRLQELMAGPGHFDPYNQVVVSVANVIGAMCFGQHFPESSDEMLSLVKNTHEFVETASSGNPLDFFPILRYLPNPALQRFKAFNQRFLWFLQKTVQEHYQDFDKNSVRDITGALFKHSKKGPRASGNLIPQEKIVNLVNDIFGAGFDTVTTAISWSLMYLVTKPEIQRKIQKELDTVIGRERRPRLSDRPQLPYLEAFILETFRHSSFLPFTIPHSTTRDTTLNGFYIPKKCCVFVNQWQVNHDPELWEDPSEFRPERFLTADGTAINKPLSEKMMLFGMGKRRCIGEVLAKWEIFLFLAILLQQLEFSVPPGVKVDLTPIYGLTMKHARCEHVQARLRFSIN

[11] = biological target: Cytochrome P450 2C19 (Homo sapiens, UniProt P33261); test: Inhibition of human CYP2C19 at 4.9 uM; assay type: ADME
Cytochrome P450 2C19, sequence (P33261 whole entry): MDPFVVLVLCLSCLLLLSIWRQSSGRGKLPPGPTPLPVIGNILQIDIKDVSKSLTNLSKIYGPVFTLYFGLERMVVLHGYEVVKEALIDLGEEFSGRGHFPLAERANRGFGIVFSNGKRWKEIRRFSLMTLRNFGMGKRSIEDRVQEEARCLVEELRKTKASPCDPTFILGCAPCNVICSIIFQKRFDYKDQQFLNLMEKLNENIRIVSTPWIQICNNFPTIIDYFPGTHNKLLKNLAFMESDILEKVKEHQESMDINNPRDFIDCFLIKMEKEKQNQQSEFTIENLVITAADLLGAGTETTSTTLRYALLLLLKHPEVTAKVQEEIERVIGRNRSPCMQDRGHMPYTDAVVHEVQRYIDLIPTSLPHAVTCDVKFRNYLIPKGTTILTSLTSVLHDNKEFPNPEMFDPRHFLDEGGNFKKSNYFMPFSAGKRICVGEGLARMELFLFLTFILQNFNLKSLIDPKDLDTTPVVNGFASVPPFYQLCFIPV

[12] = biological target: Voltage-gated inwardly rectifying potassium channel KCNH2 (Homo sapiens, UniProt Q12809); test: Inhibition of human ERG by manual patch clamp assay
Voltage-gated inwardly rectifying potassium channel KCNH2, sequence (Q12809 whole entry): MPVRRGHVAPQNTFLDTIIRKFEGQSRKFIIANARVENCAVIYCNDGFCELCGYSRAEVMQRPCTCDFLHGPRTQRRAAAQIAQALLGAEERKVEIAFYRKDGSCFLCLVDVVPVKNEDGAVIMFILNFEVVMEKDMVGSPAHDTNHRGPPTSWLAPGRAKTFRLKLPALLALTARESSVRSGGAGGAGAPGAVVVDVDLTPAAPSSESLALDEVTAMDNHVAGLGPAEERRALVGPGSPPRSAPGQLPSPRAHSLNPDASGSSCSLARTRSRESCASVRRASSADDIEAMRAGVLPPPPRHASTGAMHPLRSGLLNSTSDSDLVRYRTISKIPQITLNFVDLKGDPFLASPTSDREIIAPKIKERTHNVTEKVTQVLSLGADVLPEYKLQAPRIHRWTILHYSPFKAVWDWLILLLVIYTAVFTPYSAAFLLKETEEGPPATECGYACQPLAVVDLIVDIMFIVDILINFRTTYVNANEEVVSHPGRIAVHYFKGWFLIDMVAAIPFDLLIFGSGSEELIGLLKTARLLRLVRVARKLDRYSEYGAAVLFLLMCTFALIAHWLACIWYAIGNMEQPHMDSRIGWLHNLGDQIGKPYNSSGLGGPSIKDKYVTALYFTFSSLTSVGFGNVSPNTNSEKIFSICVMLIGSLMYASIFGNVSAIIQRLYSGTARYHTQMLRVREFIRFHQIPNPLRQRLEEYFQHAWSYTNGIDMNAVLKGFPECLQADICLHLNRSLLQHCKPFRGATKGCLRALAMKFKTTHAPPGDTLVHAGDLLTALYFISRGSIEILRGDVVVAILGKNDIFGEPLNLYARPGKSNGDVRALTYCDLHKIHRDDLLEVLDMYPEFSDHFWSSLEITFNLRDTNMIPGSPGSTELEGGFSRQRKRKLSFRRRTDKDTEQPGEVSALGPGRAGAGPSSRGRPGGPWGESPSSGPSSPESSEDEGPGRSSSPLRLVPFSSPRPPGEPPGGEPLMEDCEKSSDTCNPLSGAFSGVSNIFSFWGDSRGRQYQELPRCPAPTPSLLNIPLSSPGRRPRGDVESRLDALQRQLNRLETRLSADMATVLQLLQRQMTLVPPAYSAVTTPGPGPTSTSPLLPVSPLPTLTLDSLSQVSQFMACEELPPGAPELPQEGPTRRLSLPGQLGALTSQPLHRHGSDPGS

[13] = Drug uptake in tumor tissue of CB17 SCID mouse xenografted with human Kasumi-1 cells at 10 mg/kg, po QD for 25 days and measured after 24 hrs post last dose; assay type: ADME, organism-based, Neoplasm; conditions: time 25 day, read-out: Drug uptake
[14] = Drug uptake in tumor tissue of CB17 SCID mouse xenografted with human Kasumi-1 cells at 40 mg/kg, po QD for 25 days and measured after 24 hrs post last dose; assay type: ADME, organism-based, Neoplasm; conditions: time 25 day, read-out: Drug uptake
[15] = system: Mus musculus; test: Antiarthritic activity in collagen/complete freund's adjuvant-induced arthritis DBA/1 mouse model assessed as reduction in arthritis severity score at 50 mg/kg, po administered via gavage once daily starting from day 21 to day 41 post collagen/CFA challenge and measured on day 0, 18, 21 followed by three times weekly up to 42 days; assay type: functional, organism-based; conditions: time 21.0 day
[16] = system: Mus musculus; test: Antiarthritic activity in collagen/complete freund's adjuvant-induced arthritis DBA/1 mouse model assessed as paw thickness at 50 mg/kg, po administered via gavage starting from day 21 to day 41 post collagen/CFA challenge and measured on day 21 by caliper analysis (reference value: 2.48 millimeter); assay type: functional; conditions: time 21 day
[17] = system: Mus musculus; test: Antiarthritic activity in collagen/complete freund's adjuvant-induced arthritis DBA/1 mouse model assessed as hind paw histological score at 50 mg/kg, po administered via gavage starting from day 21 to day 41 post collagen/CFA challenge and measured on day 42 by hematoxylin-eosin staining based assay (reference value: 2.66 +/- 0.44 au); assay type: functional; conditions: time 21 day
[18] = system: Mus musculus; test: Antiinflammatory activity in collagen/complete freund's adjuvant-induced arthritis DBA/1 mouse model assessed as IL-2 level in rear right paw at 50 mg/kg, po administered via gavage starting from day 21 to day 41 post collagen/CFA challenge and measured on day 42 measured per mg protein (reference value: 0.2 pg); assay type: functional; conditions: time 21 day
[19] = system: Mus musculus; test: Antiinflammatory activity in collagen/complete freund's adjuvant-induced arthritis DBA/1 mouse model assessed as MCP-1 level in rear right paw at 50 mg/kg, po administered via gavage starting from day 21 to day 41 post collagen/CFA challenge and measured on day 42 measured per mg protein (reference value: 126.24 pg); assay type: functional; conditions: time 21 day
[20] = system: Mus musculus; test: Antiinflammatory activity in collagen/complete freund's adjuvant-induced arthritis DBA/1 mouse model assessed as TNF-alpha level in rear right paw at 50 mg/kg, po administered via gavage starting from day 21 to day 41 post collagen/CFA challenge and measured on day 42 measured per mg protein (reference value: 0.88 pg); assay type: functional; conditions: time 21 day
[21] = system: Kasumi 1; test: Antiproliferative activity against human Kasumi-1 cells after 72 hrs by Celltiter-Glo assay; assay type: functional, cell-based; conditions: Kasumi 1, 72 h
[22] = system: Mus musculus; test: Antiinflammatory activity in collagen/complete freund's adjuvant-induced arthritis DBA/1 mouse model assessed as IFN-gamma level in rear right paw at 50 mg/kg, po administered via gavage starting from day 21 to day 41 post collagen/CFA challenge and measured on day 42 measured per mg protein (reference value: 0.78 pg); assay type: functional; conditions: time 21 day
[23] = system: Mus musculus; test: Antiinflammatory activity in collagen/complete freund's adjuvant-induced arthritis DBA/1 mouse model assessed as M-CSF level in rear right paw at 50 mg/kg, po administered via gavage starting from day 21 to day 41 post collagen/CFA challenge and measured on day 42 measured per mg protein (reference value: 3.49 pg); assay type: functional; conditions: time 21 day
[24] = biological target: T2, Bromodomain-containing protein 2 (Homo sapiens, UniProt P25440); test: Binding affinity to human partial length BRD2 (BD1) (K71 to N194 residues) expressed in bacterial expression system by BROMOscan assay
T2 sequence (P25440 whole entry, the tested form may be a part): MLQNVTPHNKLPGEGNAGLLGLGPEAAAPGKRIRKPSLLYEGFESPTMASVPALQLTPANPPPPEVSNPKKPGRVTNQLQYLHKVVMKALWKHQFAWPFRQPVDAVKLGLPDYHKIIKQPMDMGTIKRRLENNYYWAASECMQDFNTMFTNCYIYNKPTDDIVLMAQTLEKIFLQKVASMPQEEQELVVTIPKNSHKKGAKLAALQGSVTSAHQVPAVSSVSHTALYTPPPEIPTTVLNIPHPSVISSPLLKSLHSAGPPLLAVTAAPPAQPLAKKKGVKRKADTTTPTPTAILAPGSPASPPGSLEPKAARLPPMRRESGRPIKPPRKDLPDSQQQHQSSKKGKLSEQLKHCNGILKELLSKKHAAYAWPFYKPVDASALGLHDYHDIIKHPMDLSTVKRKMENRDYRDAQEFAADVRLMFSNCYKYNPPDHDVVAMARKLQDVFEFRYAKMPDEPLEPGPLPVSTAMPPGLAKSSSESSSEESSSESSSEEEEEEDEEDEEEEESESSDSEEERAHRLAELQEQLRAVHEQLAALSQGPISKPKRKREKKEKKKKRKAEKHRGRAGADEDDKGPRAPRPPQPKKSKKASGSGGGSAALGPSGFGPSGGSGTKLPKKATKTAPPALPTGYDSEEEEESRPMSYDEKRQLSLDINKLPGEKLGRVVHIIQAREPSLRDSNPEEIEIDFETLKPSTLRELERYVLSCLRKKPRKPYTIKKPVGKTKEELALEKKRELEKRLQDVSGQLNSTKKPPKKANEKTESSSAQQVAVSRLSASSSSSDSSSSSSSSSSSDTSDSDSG

[25] = biological target: T2, Bromodomain-containing protein 2; test: Binding affinity to human partial length BRD2 (BD2) (E348 to D455 residues) expressed in bacterial expression system by BROMOscan assay
[26] = biological target: Bromodomain-containing protein 4 (Homo sapiens, UniProt O60885); test: Binding affinity to human partial length BRD4 (BD1) (N44 to E168 residues) expressed in bacterial expression system by BROMOscan assay
[27] = biological target: Bromodomain testis-specific protein (Homo sapiens, UniProt Q58F21); test: Binding affinity to human partial length BRDT (BD1,2) (N21 to E382 residues) expressed in bacterial expression system by BROMOscan assay
[28] = Drug metabolism in rat assessed as oxidised metabolite formation by MetID study analysis; assay type: ADME

Q: With `Cc1noc(C)c1-c1ccc2nc(-c3cnn(CC(C)(C)O)c3)nc(N3CCOC[C@@H]3c3ccccc3)c2c1` as the compound, how does the Activity [1] read?
A: 66 mm3

Q: And the half-life [2]?
A: 1.7 h

Q: And the t1/2 [3]?
A: 0.367 h

Q: And the half-life [4]?
A: 1.7 h

Q: And the Activity [5]?
A: Non-Toxic

Q: And the Activity [6]?
A: Non-Toxic

Q: What about the Papp [7] of the same compound?
A: 18.2 10^-6 cm/s

Q: And the Ratio [8]?
A: 1

Q: What about the inhibition at 10 µM [9] of the same compound?
A: < 50%

Q: What about the inhibition at 10 µM [10] of the same compound?
A: < 50%

Q: What about the “inhibition (INH)” value [11] of the same compound?
A: Active

Q: What about the IC50 [12] of the same compound?
A: 6500 nM

Q: What about the concentration at 600 h [13] of the same compound?
A: 56 ng/g

Q: And the concentration at 600 h [14]?
A: 2260 ng/g

Q: What about the Activity [15] of the same compound?
A: Active

Q: What about the Activity [16] of the same compound?
A: 1.83 mm

Q: What about the Activity [17] of the same compound?
A: 0.5 a.u.

Q: What about the Activity [18] of the same compound?
A: 0.3 pg

Q: What about the Activity [19] of the same compound?
A: 8.48 pg

Q: What about the Activity [20] of the same compound?
A: 0.46 pg

Q: What about the IC50 [21] of the same compound?
A: 220 nM

Q: What about the Activity [22] of the same compound?
A: 1.29 pg

Q: What about the Activity [23] of the same compound?
A: 2.89 pg

Q: What about the Kd [24] of the same compound?
A: 45 nM

Q: What about the Kd [25] of the same compound?
A: 200 nM

Q: And the Kd [26]?
A: 17 nM

Q: And the Kd [27]?
A: 170 nM

Q: And the Drug metabolism [28]?
A: Metabolite_Detected

Source: ChEMBL document CHEMBL4665641, “Lead optimization and efficacy evaluation of quinazoline-based BET family inhibitors for potential treatment of cancer and inflammatory diseases” (Bioorg Med Chem Lett, 2019)
